In patent publication US20040127567A1, “Novel methods for treating disorders in which docosahexaenoic acid (DHA) levels are affected” (Beth Israel Deaconess Medical Center, Inc., priority 1998, published 2004):
Several values for one entry are separate records, joined by “and”; a condition that tells them apart may be missing. Equal entries are not always repeated. Entries after “also recorded” stand apart in the source; their conditions may differ.

Key:
Format in all cases: in vivo, mouse
CFTR−/− mice [1] = experiment: Fatty acid levels (GC/MS) in pancreas and lung cells of CFTR−/− mice fed n-3 fatty acids; conditions: for AA level in pancreas: CFTR-/- mice, 40 mg/day for one week (fish oil: dose equivalent to 40 mg DHA, 60 mg EPA, 15 mg LNA), mean ± S.D.
CFTR−/− mice [2] = experiment: as above; conditions: for DHA level in pancreas: CFTR-/- mice, mean ± S.D.; for DHA level in pancreas / Change in phospholipid/membrane-bound AA (in words) / Change in phospholipid/membrane-bound DHA (in words): 40 mg/day for one week (fish oil: dose equivalent to 40 mg DHA, 60 mg EPA, 15 mg LNA); for Change in phospholipid/membrane-bound AA (in words) / Change in phospholipid/membrane-bound DHA (in words): vs Peptamen alone
Description: Mouse pancreatic acinar and lung cell suspensions were prepared from wild type (n=3) and CFTR−/− mice (n=3) by enzymatic and mechanical dissociation. In addition, brain, kidney, heart, spleen, and blood were sonicated in 0.3M sucrose buffer. Membrane lipids were extracted from cell and organ preparations with 20 volumes of chloroform-methanol 2:1 (v/v), transmethylated with 0.5 mL of 0.1 N methanolic-NaOH/BF3 reagent, and the resulting fatty acid methyl esters analyzed by gas chromatography/mass spectrometry (GC/MS). In a different set of experiments, lipids were fractionated by aminopropyl column chromatography into triglycerides, cholesterol esters, and phosphoglycerides and the fatty acid composition of each lipid class determined by a combination of enzymatic hydrolysis, transmethylation, and GC/MS.
Cystic fibrosis (UNC strain) and wild type mice (12-20 grams body weight) were fed with a complete liquid enteral formulation (Peptamen™, Nestle Clinical Nutrition, Inc.) supplemented with different quantities of the DHA-containing formulation Neuromins (Nature's Way Products Inc., Springville, Utah). DHA content in the Neuromins formulation was 100 mg per 500 mg of formulation. Mice were fed once a day at about 11 a.m., seven days a week with 20 ml of Peptamen™ supplemented with the various amounts of either Neuramins, free DHA (Sigma Chemical Co., MO) or DHA-ethyl ester (Nu-Check-Prep, Inc. MN) ranging from 0.5 mg/day of DHA to 40 mg/day of DHA.
Lung and acinar cells were isolated from a CF mouse fed with DHA formula (mouse-1, 40 mg/day DHA). The pellets (0.5 mL for pancreas cell homogenate and 0.6 mL for lung cell homogenate) were extracted with 3 mL of chloroform-methanol 2:1 (v/v). The resulting emulsion was vortexed, centrifuged at 800 g for 3 min., and the lower phase aspirated. The residual upper phase was partitioned again with 3 mL of chloroform-methanol 2:1 (v/v), the lower phase aspirated and both lower phases combined. Fractions were evaporated to dryness, processed for fatty acid methyl esters (FAME) and were analyzed by GC-MS analysis. Aliquots of 10 μL of 17:0 methyl ester solution in hexane [1 μg/μL] were added to the samples after methylation.
(§1) Lung and acinar cells were isolated from a CF and a wild-type (WT) mouse fed with DHA formula. The pellets (0.5 mL for pancreas cell homogenate and 0.6 mL for lung cell homogenate) were extracted with 3 mL of chloroform-methanol 2:1 (v/v). The resulting emulsion was vortexed, centrifuged at 800 g for 3 min., and the lower phase aspirated. The residual upper phase was partitioned again with 3 mL of chloroform-methanol 2:1 (v/v), the lower phase aspirated and both lower phases combined. Fractions were evaporated to dryness, processed for FAME and analyzed by GC-MS. Aliquots of 20 μL of 17:0 in chloroform-methanol 2:1 (v/v) were added to the samples before methylation.
as §1, with “from” for “from a”, “mice” for “and a wild-type (WT) mouse”, “different doses of DHA, i.e., 0.5 mg/day, 2.0 mg/day, 10 mg/day or 40 mg/day DHA.” for “DHA formula.”, “pellets” for “pellets (0.5 mL for pancreas cell homogenate and 0.6 mL for lung cell homogenate)”, “30” for “20”
CFTR−/− mice were prepared as described in Example 1. Both CFTR−/− mice and wild type mice were euthanized with carbon dioxide, and cell suspensions from pancreas and lung isolated.

CFTR−/− mice [3] = experiment: Pancreatic morphology / luminal diameter in CFTR−/− mice; conditions: for Effect on pancreas morphology (in words): 40 mg/day for one week (fish oil: dose equivalent to 40 mg DHA, 60 mg EPA, 15 mg LNA), vs Peptamen alone
Description: CF and WT mice were fed as outlined in the method section above. Dilation of the pancreatic duct lumen is a hallmark feature of cystic fibrosis. Therefore, the luminal area was measured from a minimum of 30 images from CF knockout mice treated with Peptamen™ alone or Peptamen™ plus 40 mg/day of DHA as well as wild type (WT) mice treated with Peptamen™ alone beginning at the time of weaning. Animals were sacrificed at 37 days of age and each pancreas fixed in glutaraldehyde. Analysis was performed using NIH Image software. The results are outlined in FIG. 1. […] No other treatment to date has shown tissue improvements at a morphological level.
The morphology of various organs were also studied. Sample preparation were carried out as follows: 1-2 cm of ileum adjacent to the cecum was fixed in formalin, embedded in paraffin, cut in cross-section, and stained with hematoxylin/eosin. For pancreatic analyses, 2-3 mm pieces of pancreas were fixed for 1.5 h in 2% glutaraldehyde in 0.2M cacodylate buffer. Tissue samples were then washed in 0.2M cacodylate buffer and subsequently postfixed for 1 h in 1% osmium tetroxide in 0.1 M cacodylate buffer. Tissue was embedded in epon and thick sections stained with 1% toluidine blue.
Morphometry: For measurement of ileal villus height or pancreatic luminal diameter, multiple images were randomly taken at 200× using a Nikon Microphot-SA microscope equipped with a Diagnostic Instruments, Inc., Spot Digitizing System. Images were examined in a blinded fashion by two independent observers. Quantitation was performed using NIH Imaging Software. The differences between the means in the groups tested were evaluated using the Student's t-test.
Tissue samples from these mice were prepared for light microscopy and sections analyzed at 200×. Pancreatic acinar cell morphology of CFTR−/− control mice is characterized by massive luminal dilatation and zymogen granule accumulation at the apical pole of the acinar cells (data not shown), two hallmark features of cystic fibrosis pathology (W. V. L. Go. (1993) Pancreas: Biology, Pathobiology, and Disease, Chapter 54:1041-1081). […] Luminal diameter is approximately 9fold greater in CFTR−/− mice. […] There also appeared to be a decrease in ductal plugs DGA-fed CFTR−/− mice; however, this observation was not subjected to morphometric analysis.
Additional experiments were performed to observe the effect of administering the DHA precursor docosapentaenoic acid (DPA,22:5n-3) on DHA levels. Wild-type and CFTR−/− mice were fed with 40 mg of DPA per day for 7 days and fatty acids in pancreas and lung analyzed by GC/MS. One to 2 mm pieces of pancreas from both wild-type and CFTR−/−were fixed for 1.5 h in […] in 0.2M cacodylate buffer and processed for morphometric analysis.

[4] = CF mice, 40 mg/day DHA (dose series, Table 5)
[5] = CF mouse-1, 40 mg/day DHA, day 30 to day 37
[6] = CF mouse-2, 40 mg/day DHA, day 24 to day 47
[7] = CFTR (-/-) mice, 40 mg DPA per day for 7 days
[8] = CFTR−/− mice, listed as 18:3n-3

Structure (SMILES): CC/C=C\C/C=C\C/C=C\C/C=C\C/C=C\C/C=C\CCC(=O)O [DHA, docosahexaenoic acid]
- AA level in pancreas (CFTR−/− mice [1]): 4.9 ± 1.8 nmol/mg
- 20:4n-6 in pancreas (CFTR−/− mice [2]; CF mice, 0.5 mg/day DHA): 315 nmoles per total extract
- 22:4n-6 in pancreas (CFTR−/− mice [2]; CF mice, 0.5 mg/day DHA): 8.3 nmoles per total extract
- 22:6n-3 in pancreas (CFTR−/− mice [2]; CF mice, 0.5 mg/day DHA): 39 nmoles per total extract
- 20:4n-6 in pancreas (CFTR−/− mice [2]; CF mice, 2 mg/day DHA): 233 nmoles per total extract
- 22:4n-6 in pancreas (CFTR−/− mice [2]; CF mice, 2 mg/day DHA): 7.2 nmoles per total extract
- 22:6n-3 in pancreas (CFTR−/− mice [2]; CF mice, 2 mg/day DHA): 43 nmoles per total extract
- 20:4n-6 in pancreas (CFTR−/− mice [2]; CF mice, 10 mg/day DHA): 177 nmoles per total extract
- 22:4n-6 in pancreas (CFTR−/− mice [2]; CF mice, 10 mg/day DHA): 3.7 nmoles per total extract
- 22:6n-3 in pancreas (CFTR−/− mice [2]; CF mice, 10 mg/day DHA): 67 nmoles per total extract
- 20:4n-6 in pancreas (CFTR−/− mice [2]; [4]): 67 nmoles per total extract
- 22:4n-6 in pancreas (CFTR−/− mice [2]; [4]): 0.4 nmoles per total extract
- 22:6n-3 in pancreas (CFTR−/− mice [2]; [4]): 148 nmoles per total extract
- 20:4n-6 in lung (CFTR−/− mice [2]; [5]): 75 nmoles per total extract
- 20:4n-6 in pancreas (CFTR−/− mice [2]; [5]): 144^1 nmoles per total extract
- 22:4n-6 in lung (CFTR−/− mice [2]; [5]): 12 nmoles per total extract
- 22:4n-6 in pancreas (CFTR−/− mice [2]; [5]): 1.5 nmoles per total extract
- 22:6n-3 in lung (CFTR−/− mice [2]; [5]): 167 nmoles per total extract
- 22:6n-3 in pancreas (CFTR−/− mice [2]; [5]): 167 nmoles per total extract
- 20:4n-6 in lung (CFTR−/− mice [2]; [6]): 60 nmoles per total extract
- 20:4n-6 in pancreas (CFTR−/− mice [2]; [6]): 67^1 nmoles per total extract and 67 nmoles per total extract
- 22:4n-6 in lung (CFTR−/− mice [2]; [6]): 4.1 nmoles per total extract
- 22:4n-6 in pancreas (CFTR−/− mice [2]; [6]): 0.4 nmoles per total extract
- 22:6n-3 in lung (CFTR−/− mice [2]; [6]): 222 nmoles per total extract
- 22:6n-3 in pancreas (CFTR−/− mice [2]; [6]): 148 nmoles per total extract
- DHA level in pancreas (CFTR−/− mice [2]): 7.9 ± 1.5 nmol/mg
- Increase of DHA levels in pancreas above wild-type levels (CFTR−/− mice [2]; CFTR−/− mice, 40 mg DHA/day): 3 fold
- Decrease in pancreatic luminal diameter (CFTR−/− mice [3]; oral 40 mg/day for 7 days, p<0.0001, n=6): 63%

Structure (SMILES): CC/C=C\C/C=C\C/C=C\C/C=C\C/C=C\CCCCCC(=O)O [DPA, docosapentaenoic acid]
- 20:5n-3 in pancreas (CFTR−/− mice [1]; [7]): 14.6 ± 1.1 (0.1) nmoles of fatty acid per mg of protein
- 22:6n-3 in pancreas (CFTR−/− mice [1]; [7]): 2.0 ± 0.4(1.5) nmoles of fatty acid per mg of protein
- AA level in pancreas (CFTR−/− mice [1]): 5.1 ± 0.6 nmol/mg
- 20:4n-6 in lung (CFTR−/− mice [2]; [7]): 5.8 ± 0.9 (17.5) nmoles of fatty acid per mg of protein
- 20:4n-6 in pancreas (CFTR−/− mice [2]; [7]): 5.1 ± 0.6^1 (13.3) nmoles of fatty acid per mg of protein
- 20:5n-3 in lung (CFTR−/− mice [2]; [7]): 15.6 ± 1.1 (0.1) nmoles of fatty acid per mg of protein
- 22:6n-3 in lung (CFTR−/− mice [2]; [7]): 5.5 ± 0.8(4.0) nmoles of fatty acid per mg of protein
- DHA level in pancreas (CFTR−/− mice [2]): 3.7 ± 0.4 nmol/mg
- Improvement in pancreas morphology (pancreatic ductal diameter, presence of plugs) (CFTR−/− mice [3]; 40 mg per day for 7 days): 20%

Structure (SMILES): CC/C=C\C/C=C\C/C=C\CCCCCCCC(=O)O [LNA, α-linolenic acid, reference compound]
- AA level in pancreas (CFTR−/− mice [1]): 5.5 ± 0.8 nmol/mg
- DHA level in pancreas (CFTR−/− mice [2]): 0.7 ± 0.07 nmol/mg
- Change in phospholipid/membrane-bound AA (in words) (CFTR−/− mice [2]; CFTR−/− mice): significant decrease; also recorded: four-fold decrease
- Change in phospholipid/membrane-bound DHA (in words) (CFTR−/− mice [2]; CFTR−/− mice): further decrease; also recorded: two-fold decrease
- Change in phospholipid/membrane-bound AA (in words) (CFTR−/− mice [2]; [8]): significant decrease
- Change in phospholipid/membrane-bound DHA (in words) (CFTR−/− mice [2]; [8]): further decrease
- Effect on pancreas morphology (in words) (CFTR−/− mice [3]): significant increase in acinar lumen dilatation and plug formation; also recorded: significant increase in ductal dilatation; also recorded: increased acinar lumen dilation and plug formation
- Effect on pancreas morphology (in words) (CFTR−/− mice [3]; listed as 18:3n-3): worsening of the pathological changes in the pancreas
